Patent US12576135B2, “Compositions and methods for anti-TnMUC1 gold CAR t-cells” (Chimera Bioengineering, Inc., priority 2021, dated 2026)

Assays:
PI3K = conditions: cited from earlier work
primary T-cells = assay: Rapamycin inhibition of Gold controlled nano-luciferase in anti-DLL3 CAR primary T-cells mixed with SHP-77 cells; type: cell-based; conditions: Concurrent Rx and Delay Rx; 24, 48, 72 hours
Excerpt: A bicistronic vector with an anti-DLL3-CAR and nano-luceiferase under the control of an IFNg Gold element is made using the methods and materials described above. This bicistronic vector is transduced into primary T-cells, and transduced T-cells are obtained. When the transduced T-cells are mixed with SHP-77 cells that display the DLL3 antigen, the primary T-cells are activated and nano-luciferase is expressed.
The ability of rapamycin to inhibit the expression of nano-luciferase following activation of the primary T-cells was tested. Primary T-cells transduced with the bicistronic vector encoding the anti-DLL3 CAR and nano-luciferase were mixed with SHP-77 cells and then three treatment regimens were used. No rapamycin (NoRx), rapamycin added concurrently with the SHP-77 cells (Concurrent Rx), or rapamycin added 24 hours after SHP-77 cells was added (Delay Rx). New media was mixed with the cells every 24 hours. If the cells had received rapamycin in the media in the earlier time period, rapamycin was included with the media at subsequent media changes.
FIG. 22 normalizes the nano-luciferase activity to that of the NoRx sample. Levels of nano-luciferase were measured at 24 hours, 48 hours and 72 hours post mixing with SHP-77 cells.

mTORC1 = mTORC1 (Homo sapiens, UniProt P42345); conditions: cited from earlier work

In the case of CO[C@H]1C[C@@H]2CC[C@@H](C)[C@@](O)(O2)C(=O)C(=O)N2CCCC[C@H]2C(=O)O[C@H]([C@H](C)C[C@@H]2CC[C@@H](O)[C@H](OC)C2)CC(=O)[C@H](C)/C=C(\C)[C@@H](O)[C@@H](OC)C(=O)[C@H](C)C[C@H](C)/C=C/C=C/C=C/1C [Rapamycin/sirolimus], the “expression of nano-luciferase normalized to NoRx” value (primary T-cells) is reported as “reduced expression of nano-luciferase”.
For CO[C@H]1C[C@@H]2CC[C@@H](C)[C@@](O)(O2)C(=O)C(=O)N2CCCC[C@H]2C(=O)O[C@H]([C@H](C)C[C@@H]2CC[C@@H](OCCO)[C@H](OC)C2)CC(=O)[C@H](C)/C=C(\C)[C@@H](O)[C@@H](OC)C(=O)[C@H](C)C[C@H](C)/C=C/C=C/C=C/1C [Everolimus], the IC50 (mTORC1) is given as 1.8 to 2.6 nM.
In the case of COc1ccc(-c2ccc3c(N4CCOC[C@@H]4C)nc(N4CCOC[C@@H]4C)nc3n2)cc1CO [AZD8055], the IC50 (PI3K) is listed as 3590 nM.
For COc1ccc(-c2ccc3c(N4CCOCC4)nc(N4C[C@@H](C)O[C@@H](C)C4)nc3n2)cc1CO [KU-0063794], the IC50 (PI3K) is listed as over 10000 nM.
For Nc1ccc(-c2ccc3ncc4ccc(=O)n(-c5cccc(C(F)(F)F)c5)c4c3c2)cn1 [Torin 2], the IC50 (PI3K) is listed as 4.68 nM.
For CNC(=O)Nc1ccc(-c2nc(N3CC4CCC(C3)O4)c3cnn(C4CCC5(CC4)OCCO5)c3n2)cc1 [WYE-125132], the IC50 (PI3K) is given as 1180 nM and the IC50 (mTORC1) is given as 0.19 nM.
For CCC(=O)N1CCN(c2ccc(-n3c(=O)ccc4cnc5ccc(-c6cnc7ccccc7c6)cc5c43)cc2C(F)(F)F)CC1 [Torin 1], the IC50 (PI3K) is given as 250 nM.
